Laboratory results from PMC8119466, “A screen of FDA-approved drugs identifies inhibitors of protein tyrosine phosphatase 4A3 (PTP4A3 or PRL-3)” (Scientific Reports, 2021).

Tests used:
recombinant PRL-2 = molecular target: T1, recombinant PRL-2 (Homo sapiens, UniProt Q12974); test: In vitro phosphatase assay (DiFMUP hydrolysis), PRL-2; type: biochemical; conditions: for % Phosphatase Activity (compared to DMSO) PRL-2: FDA-approved drug screen;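 on all read-outs here: PRL-2 activity read as DiFMUP hydrolysis after 20 min at room temperature with drug, enzyme first pre-reduced at 4 °C for 20 min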
T1 construct: 6xHis (N, cleaved yes); made in house; host or cells: E. coli One Shot BL21 Star
T1 sequence (Q12974 1-167): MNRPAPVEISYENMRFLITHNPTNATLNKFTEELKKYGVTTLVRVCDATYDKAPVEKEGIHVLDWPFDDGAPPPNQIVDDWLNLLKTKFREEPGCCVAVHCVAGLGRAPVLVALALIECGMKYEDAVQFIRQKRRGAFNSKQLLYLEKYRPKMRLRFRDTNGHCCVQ

recombinant PRL-3 = molecular target: T2, recombinant PRL-3 (Homo sapiens, UniProt O75365); test: In vitro phosphatase assay (DiFMUP hydrolysis), PRL-3; type: biochemical; conditions: for % Phosphatase Activity (compared to DMSO) PRL-3: FDA-approved drug screen
T2 construct: 6xHis (N, cleaved yes); made in house; host or cells: E. coli One Shot BL21 Star

recombinant PRL-1 = molecular target: T3, recombinant PRL-1 (Homo sapiens, UniProt Q93096); test: In vitro phosphatase assay (DiFMUP hydrolysis), PRL-1; type: biochemical; conditions: for % Phosphatase Activity (compared to DMSO) PRL-1: FDA-approved drug screen
T3 construct: 6xHis (N, cleaved yes); made in house; host or cells: E. coli One Shot BL21 Star
T3 sequence (Q93096 1-173): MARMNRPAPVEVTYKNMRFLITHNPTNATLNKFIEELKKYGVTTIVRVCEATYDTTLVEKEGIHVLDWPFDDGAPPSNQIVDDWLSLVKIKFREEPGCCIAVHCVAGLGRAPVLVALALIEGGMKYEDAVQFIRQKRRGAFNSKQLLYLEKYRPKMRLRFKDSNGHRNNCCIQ

HEK293T cells = test: MTT viability assay; type: cell-based, human; conditions: drug doses 1 to 100 µM, 16 h, normalized to 1% DMSO
Protocol: Cells were seeded into duplicate wells of a 96 well plate at a density of 2 × 10^4 cells per well and allowed to recover for 24 h. Cells were then treated with drug or DMSO at the indicated concentrations for 16 h. Following drug treatment, 10 μL of 5 mg/ml MTT (Sigma, M5655) was added to each well and cells were incubated for 4 h. Finally, media were removed, and the dye was solubilized in 100 μL of 0.1 M HCl in isopropanol. Absorbance was measured at 570 nm and 690 nm with final absorbance measurements as 570–690 nm.

T2 sequence (O75365 whole entry): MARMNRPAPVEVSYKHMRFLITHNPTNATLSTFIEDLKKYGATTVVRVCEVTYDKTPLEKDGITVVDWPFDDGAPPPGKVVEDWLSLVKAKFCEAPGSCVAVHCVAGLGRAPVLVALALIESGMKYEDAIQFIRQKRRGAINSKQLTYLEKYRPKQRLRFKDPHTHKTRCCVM

Eptifibatide Acetate
% Phosphatase Activity (compared to DMSO) PRL-2 (recombinant PRL-2; compared to DMSO): 82%
% Phosphatase Activity (compared to DMSO) PRL-3 (recombinant PRL-3; compared to DMSO): 91%
% Phosphatase Activity (compared to DMSO) PRL-1 (recombinant PRL-1; compared to DMSO): 88%

Escin
% Phosphatase Activity (compared to DMSO) PRL-2 (recombinant PRL-2; compared to DMSO): 73%
% Phosphatase Activity (compared to DMSO) PRL-3 (recombinant PRL-3; compared to DMSO): 95%
% Phosphatase Activity (compared to DMSO) PRL-1 (recombinant PRL-1; compared to DMSO): 72%

GHRP-2
% Phosphatase Activity (compared to DMSO) PRL-2 (recombinant PRL-2; compared to DMSO): 102%
% Phosphatase Activity (compared to DMSO) PRL-3 (recombinant PRL-3; compared to DMSO): 100%
% Phosphatase Activity (compared to DMSO) PRL-1 (recombinant PRL-1; compared to DMSO): 98%

Heparin sodium
% Phosphatase Activity (compared to DMSO) PRL-2 (recombinant PRL-2; compared to DMSO): 72%
% Phosphatase Activity (compared to DMSO) PRL-3 (recombinant PRL-3; compared to DMSO): 78%
% Phosphatase Activity (compared to DMSO) PRL-1 (recombinant PRL-1; compared to DMSO): 86%

Isosorbide
% Phosphatase Activity (compared to DMSO) PRL-2 (recombinant PRL-2; compared to DMSO): 89%
% Phosphatase Activity (compared to DMSO) PRL-3 (recombinant PRL-3; compared to DMSO): 69%
% Phosphatase Activity (compared to DMSO) PRL-1 (recombinant PRL-1; compared to DMSO): 90%

Nafarelin Acetate
% Phosphatase Activity (compared to DMSO) PRL-2 (recombinant PRL-2; compared to DMSO): 91%
% Phosphatase Activity (compared to DMSO) PRL-3 (recombinant PRL-3; compared to DMSO): 91%
% Phosphatase Activity (compared to DMSO) PRL-1 (recombinant PRL-1; compared to DMSO): 91%

Oxytocin (Syntocinon)
% Phosphatase Activity (compared to DMSO) PRL-2 (recombinant PRL-2; compared to DMSO): 68%
% Phosphatase Activity (compared to DMSO) PRL-3 (recombinant PRL-3; compared to DMSO): 81%
% Phosphatase Activity (compared to DMSO) PRL-1 (recombinant PRL-1; compared to DMSO): 82%

S-Ruxolitinib (INCB018424)
% Phosphatase Activity (compared to DMSO) PRL-2 (recombinant PRL-2; compared to DMSO): 127%
% Phosphatase Activity (compared to DMSO) PRL-3 (recombinant PRL-3; compared to DMSO): 104%
% Phosphatase Activity (compared to DMSO) PRL-1 (recombinant PRL-1; compared to DMSO): 113%

Spiramycin
% Phosphatase Activity (compared to DMSO) PRL-2 (recombinant PRL-2; activity compared to DMSO): 90%
% Phosphatase Activity (compared to DMSO) PRL-3 (recombinant PRL-3; activity compared to DMSO): 68%
% Phosphatase Activity (compared to DMSO) PRL-1 (recombinant PRL-1; activity compared to DMSO): 86%

Teneligliptin hydrobromide
% Phosphatase Activity (compared to DMSO) PRL-2 (recombinant PRL-2; activity compared to DMSO): 100%
% Phosphatase Activity (compared to DMSO) PRL-3 (recombinant PRL-3; activity compared to DMSO): 90%
% Phosphatase Activity (compared to DMSO) PRL-1 (recombinant PRL-1; activity compared to DMSO): 95%

Tyloxapol
% Phosphatase Activity (compared to DMSO) PRL-2 (recombinant PRL-2; activity compared to DMSO): 83%
% Phosphatase Activity (compared to DMSO) PRL-3 (recombinant PRL-3; activity compared to DMSO): 90%
% Phosphatase Activity (compared to DMSO) PRL-1 (recombinant PRL-1; activity compared to DMSO): 89%

Vitamin B12 [reference compound]
% Phosphatase Activity (compared to DMSO) PRL-2 (recombinant PRL-2; activity compared to DMSO): -16%
IC50 (recombinant PRL-2; […] protein, DiFMUP at KM, read-out: Calculated IC50, PRL-2 phosphatase activity): 900 ± 200 nM
% Phosphatase Activity (compared to DMSO) PRL-3 (recombinant PRL-3; activity compared to DMSO): -2%
IC50 (recombinant PRL-3; […] protein, DiFMUP at KM, read-out: Calculated IC50, PRL-3 phosphatase activity): 900 ± 100 nM
viability (MTT) (HEK293T cells): no effect on the viability
% Phosphatase Activity (compared to DMSO) PRL-1 (recombinant PRL-1; activity compared to DMSO): 2.68%
IC50 (recombinant PRL-1; […] protein, DiFMUP at KM, read-out: Calculated IC50, PRL-1 phosphatase activity): 700 ± 200 nM

Vitamin E
% Phosphatase Activity (compared to DMSO) PRL-2 (recombinant PRL-2; activity compared to DMSO): 90%
% Phosphatase Activity (compared to DMSO) PRL-3 (recombinant PRL-3; activity compared to DMSO): 90%
% Phosphatase Activity (compared to DMSO) PRL-1 (recombinant PRL-1; activity compared to DMSO): 108%
